Data on 19 molecules can be found in patent US5684151A, “1-arylsulphonyl, arylcarbonyl and 1-arylphosphonyl-3-phenyl-1,4,5,6-tetrahydropyridazines” (priority 1995, dated 1997).

Like-named read-outs stand apart in the source and are kept apart here.

For test [1], the system named is mouse (MC3T3-E1) and human (TE-85) osteoblast-line cells. It counts as cell-based. The method, boiled down:
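Proliferation was read as ^3H-thymidine (0.4 μCi) uptake during a 4 h pulse, which started 20 h after compound addition. Before dosing, cells sat 24 h in 0.1% FBS. Values are % times control (100%).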

For test [2], the target named is T1, progestin receptor from rabbit uterus (Oryctolagus cuniculus, UniProt P06186).
T1 construct: Cytosolic progestin receptor were obtained by mixing rabbit uterine tissue with a Tris buffer; from tissue; host or cells: rabbit uterus cytosol
T1 sequence (P06186 whole entry): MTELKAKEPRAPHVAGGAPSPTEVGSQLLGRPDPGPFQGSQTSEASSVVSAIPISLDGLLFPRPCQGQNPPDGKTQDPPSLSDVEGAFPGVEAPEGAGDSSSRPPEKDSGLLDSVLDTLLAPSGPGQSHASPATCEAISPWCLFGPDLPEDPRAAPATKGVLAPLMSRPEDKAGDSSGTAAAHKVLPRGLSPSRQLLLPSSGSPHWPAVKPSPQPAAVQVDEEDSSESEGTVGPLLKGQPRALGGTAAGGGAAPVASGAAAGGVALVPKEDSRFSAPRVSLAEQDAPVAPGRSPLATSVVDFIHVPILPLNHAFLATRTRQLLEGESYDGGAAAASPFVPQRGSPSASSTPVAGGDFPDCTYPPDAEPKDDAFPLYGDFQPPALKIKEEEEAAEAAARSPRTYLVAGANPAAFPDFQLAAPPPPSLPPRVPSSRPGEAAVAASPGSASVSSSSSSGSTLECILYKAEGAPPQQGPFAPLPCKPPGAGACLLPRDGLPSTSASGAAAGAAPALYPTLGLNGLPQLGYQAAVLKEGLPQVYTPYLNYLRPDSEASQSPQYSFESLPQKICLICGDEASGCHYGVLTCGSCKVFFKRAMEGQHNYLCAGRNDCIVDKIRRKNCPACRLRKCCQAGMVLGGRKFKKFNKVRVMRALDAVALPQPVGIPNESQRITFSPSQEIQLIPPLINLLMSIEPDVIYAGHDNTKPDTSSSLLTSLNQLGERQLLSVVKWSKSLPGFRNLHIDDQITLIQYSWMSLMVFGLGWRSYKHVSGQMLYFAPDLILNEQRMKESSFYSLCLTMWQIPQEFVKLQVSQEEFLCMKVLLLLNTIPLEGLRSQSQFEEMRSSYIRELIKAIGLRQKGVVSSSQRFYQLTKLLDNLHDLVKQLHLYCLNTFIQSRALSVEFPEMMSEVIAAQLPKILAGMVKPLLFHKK
Nature of the test: Progestin receptor binding (3H-R5020 displacement). Conditions: rabbit uterine cytosol, 4° C., 18 h, read-out: IC50: Binding affinity for the progestin receptor from rabbit uterus. Summed up: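 Displacement of the radioligand 3H-R5020 was measured in cytosol from homogenized rabbit uterus (pH 7.4 Tris/EDTA/DTT/molybdate buffer), with compounds at 5% final DMSO and about 18 h at 4 °C. Charcoal removed free ligand, scintillation counting quantified bound ligand, and IC50 was the concentration displacing half.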

For orientation: IC50 means the concentration that inhibits the measured activity by half. `Cc1ccc(S(=O)(=O)N2N=C(c3cccc(Br)c3)CC3C4C5C=CC(C5)C4CC32)cc1` (stereo not drawn) [Compound 161, 1,4,4a,9a-Tetrahydro-1-(4-methylbenzenesulfonyl)-3-(3bromophenyl)bicyclo[2.2.1]hept-7-enyl[5.6-a]cyclopenta[1.2-e]pyridazine]: the “Osteoblast Cell Proliferation, 3H-thymidine incorporation vs control (100%)” value (shortened to “Osteoblast Cell Proliferation … (100%)”) in test [1] (10^-6) is on record as 76%; in test [1] (10^-7) it was 95%; in test [1] (10^-8), 113%; in test [1] (10^-9), 122%; in test [1] (10^-10), 112%. Further, the IC50 in test [2] is 3 µM.

Consider `O=C(c1ccc(Cl)cc1)N1CCCC(c2ccc(F)cc2)=N1` [Compound 204], for which the “Osteoblast Cell Proliferation … (100%)” value in test [1] (10^-6) was 79%; in test [1] (10^-7), 109%; in test [1] (10^-8), 105%; in test [1] (10^-9), 101%; in test [1] (10^-10), 109%. The IC50 in test [2] amounted to 3 µM.

For `O=S(=O)(c1ccc(I)cc1)N1CCCC(c2ccc3c(c2)CCCC3)=N1` [Compound 113], the “Osteoblast Cell Proliferation … (100%)” value in test [1] (10^-6) was 66%; in test [1] (10^-7), 94%; in test [1] (10^-8), 102%; in test [1] (10^-9), 102%; in test [1] (10^-10) it was 90%. Further, in test [2], the IC50 was determined as 0.0276 µM.

As for `O=S(=O)(c1ccc2ccccc2c1)N1CCCC(c2cccc(Cl)c2)=N1` [Compound 94], the “Osteoblast Cell Proliferation … (100%)” value in test [1] (10^-6) stood at 110%; in test [1] (10^-7), 85%; in test [1] (10^-8), 90%; in test [1] (10^-9), 110%; in test [1] (10^-10) it was 130%. Also, the IC50 in test [2] worked out at 0.0146 µM.

Regarding `Nc1ccc(S(=O)(=O)N2CCCC(c3ccc(Cl)cc3)=N2)cc1` [Compound 153, 1-(4-Aminobenzenesulfonyl)-3-(4-chlorophenyl)-1,4,5,6-tetrahydropyridazine], the “Osteoblast Cell Proliferation … (100%)” value in test [1] (10^-6) is 85%; in test [1] (10^-7) it was 115%; in test [1] (10^-8) it was 83%; in test [1] (10^-9), 99%; in test [1] (10^-10), 103%. In addition, the IC50 in test [2] was determined as 0.636 µM.

As for `CC(C)(C)c1ccc(C(=O)N2CCCC(c3ccccc3)=N2)cc1` [Compound 197], the “Osteoblast Cell Proliferation … (100%)” value was 87% in test [1] (10^-6); 89% in test [1] (10^-7); 91% in test [1] (10^-8); 81% in test [1] (10^-9); 52% in test [1] (10^-10). In addition, the IC50 in test [2] was 100 µM.

As for `Cc1ccc(C(=O)N2CCCC(c3ccc(Cl)cc3)=N2)cc1` [Compound 192], the “Osteoblast Cell Proliferation … (100%)” value turned out to be 115% in test [1] (10^-6); 131% in test [1] (10^-7); 128% in test [1] (10^-8); 132% in test [1] (10^-9); 148% in test [1] (10^-10). Besides, the IC50 in test [2] was 100 µM.

Turning to `O=S(=O)(c1ccc(Cl)cc1)N1CCCC(c2ccc(-c3ccccc3)cc2)=N1` [Compound 84], the “Osteoblast Cell Proliferation … (100%)” value in test [1] (10^-6) is reported as 108%; in test [1] (10^-7), 119%; in test [1] (10^-8), 130%; in test [1] (10^-9), 127%; in test [1] (10^-10), 122%. Also, the IC50 in test [2] came out at 1 µM.

As to `CC(=O)Nc1ccc(S(=O)(=O)N2CCCC(c3ccc(Cl)cc3)=N2)cc1` [Compound 154], the “Osteoblast Cell Proliferation … (100%)” value in test [1] (10^-6) came to 97%; in test [1] (10^-7), 111%; in test [1] (10^-8) it was 107%; in test [1] (10^-9), 124%; in test [1] (10^-10), 115%. Besides, the IC50 in test [2] was 0.819 µM.

For the molecule `O=C(c1ccc(Cl)c(Cl)c1)N1CCCC(c2ccc(Cl)cc2)=N1` [Compound 200], the “Osteoblast Cell Proliferation … (100%)” value in test [1] (10^-6) is given as 97%; in test [1] (10^-7), 109%; in test [1] (10^-8), 107%; in test [1] (10^-9) it was 120%; in test [1] (10^-10), 88%. The IC50 in test [2] is 5 µM.

Consider `O=S(=O)(c1ccccc1)N1CCCC(c2ccc(Cl)c(Cl)c2)=N1` [Compound 43], for which the “Osteoblast Cell Proliferation … (100%)” value is 92% in test [1] (10^-6); 92% in test [1] (10^-7); 99% in test [1] (10^-8); 98% in test [1] (10^-9); 85% in test [1] (10^-10). Further, in test [2], the IC50 came to 0.0033 µM.

In the case of `O=[N+]([O-])c1cccc(S(=O)(=O)N2CCCC(c3ccc(Cl)cc3)=N2)c1` [Compound 14], the “Osteoblast Cell Proliferation … (100%)” value in test [1] (10^-6) is given as 96%; in test [1] (10^-7) it was 109%; in test [1] (10^-8), 118%; in test [1] (10^-9), 136%; in test [1] (10^-10), 139%. Further, the IC50 in test [2] turned out to be 0.007 µM.

Regarding `COc1ccc(C2=NN(C(=O)c3cccc(Cl)c3)CCC2)cc1` [Compound 188], the “Osteoblast Cell Proliferation … (100%)” value in test [1] (10^-6) is given as 105%; in test [1] (10^-7), 129%; in test [1] (10^-8), 130%; in test [1] (10^-9) it was 135%; in test [1] (10^-10), 137%. The IC50 in test [2] stood at 100 µM.

For `O=S(=O)(c1ccccc1)N1CCCC(c2ccc3c(c2)CCCC3)=N1` [Compound 90], the “Osteoblast Cell Proliferation … (100%)” value is recorded as 90% in test [1] (10^-6); 95% in test [1] (10^-7); 68% in test [1] (10^-8); 68% in test [1] (10^-9); 42% in test [1] (10^-10). For the same molecule, in test [2], the IC50 is 0.0717 µM.

`O=[N+]([O-])c1ccc(S(=O)(=O)N2CCCC(c3ccc(Cl)cc3)=N2)cc1` [Compound 4]: the “Osteoblast Cell Proliferation … (100%)” value in test [1] (10^-6) is 108%; in test [1] (10^-7), 111%; in test [1] (10^-8) it was 155%; in test [1] (10^-9) it was 153%; in test [1] (10^-10) it was 158%. Moreover, the IC50 in test [2] was found to be 0.201 µM.

As for `O=C(c1ccc(Cl)c(Cl)c1)N1CCCC(c2ccc(F)cc2)=N1` [Compound 205], the “Osteoblast Cell Proliferation … (100%)” value in test [1] (10^-6) is listed as 92%; in test [1] (10^-7), 115%; in test [1] (10^-8) it was 140%; in test [1] (10^-9), 141%; in test [1] (10^-10) it was 138%. The IC50 in test [2] came to 0.263 µM.

Turning to `COc1ccc(C2=NN(C(=O)c3ccc(Cl)cc3)CCC2)cc1` [Compound 184], the “Osteoblast Cell Proliferation … (100%)” value is reported as 84% in test [1] (10^-6); 102% in test [1] (10^-7); 113% in test [1] (10^-8); 146% in test [1] (10^-9); 131% in test [1] (10^-10). Also, the IC50 in test [2] was determined as 100 µM.

As to `Cc1ccc(S(=O)(=O)N2CCCC(c3ccc(F)cc3)=N2)cc1` [Compound 9], the “Osteoblast Cell Proliferation … (100%)” value in test [1] (10^-6) is given as 65%; in test [1] (10^-7), 94%; in test [1] (10^-8) it was 128%; in test [1] (10^-9), 102%; in test [1] (10^-10), 119%. Also, in test [2], the IC50 worked out at 0.362 µM.

In the case of `O=C(c1ccc([N+](=O)[O-])cc1)N1CCCC(c2ccc(Cl)cc2)=N1` [Compound 202], the “Osteoblast Cell Proliferation … (100%)” value came to 98% in test [1] (10^-6); 108% in test [1] (10^-7); 110% in test [1] (10^-8); 116% in test [1] (10^-9); 128% in test [1] (10^-10). Besides, the IC50 in test [2] was 0.279 µM.
